These results are taken from PMC12974487, “Inhibition of FicD-mediated AMPylation and deAMPylation by isoprenoid diphosphates” (Proceedings of the National Academy of Sciences of the …, 2026).

Where a chain is given by its changes, count along the chain named.

One assay has as its target T1, FicD^WT (Homo sapiens, UniProt Q9BVA6).
T1 construct: soluble ER luminal domain (residues 105 to 458) of wild-type human FicD; 6xHis-Sumo (N, cleaved yes); made in house; host or cells: Rosetta(DE3) E. coli
T1 sequence (Q9BVA6 105-458): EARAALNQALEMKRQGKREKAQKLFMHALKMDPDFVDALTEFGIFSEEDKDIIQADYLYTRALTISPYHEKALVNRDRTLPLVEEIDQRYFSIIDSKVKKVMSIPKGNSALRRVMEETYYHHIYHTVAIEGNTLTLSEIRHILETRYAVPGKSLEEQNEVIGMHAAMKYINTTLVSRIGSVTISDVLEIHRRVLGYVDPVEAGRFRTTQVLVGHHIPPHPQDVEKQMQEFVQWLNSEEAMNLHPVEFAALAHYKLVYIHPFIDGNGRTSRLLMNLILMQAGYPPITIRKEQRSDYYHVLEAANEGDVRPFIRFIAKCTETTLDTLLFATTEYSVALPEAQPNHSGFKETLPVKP
Set-up: method as in PMID 25435325. The following applies: cited from earlier work.

The next assay concerns the target T2, FicD^E234G (Homo sapiens, UniProt Q9BVA6, E234G).
T2 construct: soluble ER luminal domain (residues 105 to 458) of wild-type human FicD and three mutants; 6xHis-Sumo (N, cleaved yes); made in house; host or cells: Rosetta(DE3) E. coli
T2 sequence (Q9BVA6 105-458 E234G): T1 sequence (Q9BVA6 105-458) with E130G
The assay can be described thus: Total (intact) mass analysis of FicD^E234G incubated with FPP. The following applies: 50uM FPP, 5mM MgCl2. The text has this: To reveal the mechanism of FicD inhibition by FPP, we leveraged the FicD^E234G mutant for structural studies. We soaked FPP into crystals of the FicD^E234G variant and solved the ligand-bound structure (Fig. 5 A and B). […] The diphosphate group of FPP closely overlapped with the ADP diphosphate when superimposed with a FicD^E234G-ADP structure (Fig. 5 A, Left), and the hydrophobic isoprenyl groups of FPP overlap with the nucleoside in the active site binding pocket (Fig. 5 A, Right). The FPP diphosphate binds directly to the side chains of N369, R371, with the sidechain of D367 coordinating the Mg^2+ (Fig. 5B). These interactions mimic those observed between ADP/ATP and FicD ([26]). […] As previously noted, only GPP and FPP could bind to and inhibit FicD, but analogs of the isoprenoid-pyrophosphate metabolites (geraniol, GMP, farnesol, FMP, DMAPP, and MVAPP) could not (Fig. 2 B–D). Together, these observations indicate both the pyrophosphate head and the long isoprenoid tail of GPP/FPP contribute to the binding with FicD. […]
Intact mass analysis of proteins was performed by the UT Southwestern Proteomics Core. Intact protein samples were analyzed by LC/MS, using a Sciex X500B QTOF mass spectrometer operating in positive ion mode, coupled to an Agilent 1290 Infinity II HPLC. […]

A word on the Kd: it is the equilibrium constant for the complex coming apart. `Nc1ncnc2c1ncn2[C@@H]1O[C@H](COP(=O)(O)OP(=O)(O)O)[C@@H](O)[C@H]1O` [ADP]: the Kd on FicD^WT was 1500 nM. Turning to `CC(C)=CCC/C(C)=C/CC/C(C)=C/COP(=O)(O)OP(=O)(O)O` [FPP, farnesyl-pyrophosphate], the “mass shift associated with putative FPP automodification” value at FicD^E234G is “no mass shift”.
